Results taken from patent EP2818472A1, “Imidazo[4,5-c]pyridine and pyrrolo[3,2-c]pyridine compounds as G-protein-coupled receptor kinase 5 (GRK5) modulators” (Max-Planck-Gesellschaft zur Förderung der Wissenschaften …, priority 2013, dated 2014).

The compounds below were run on beta-TC6 cells (assay: Insulin HTRF assay (relative activity Ar) in beta-TC6 cells). Settings: Mus musculus, Beta-TC6, 4 h, insulin HTRF, supernatant of beta-TC6 cells, incubation with test compound at 37°C for 2, 3, 4h; read-out: Ar (relative activity).
Assay type: cell-based, mouse
Method in brief: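 beta-TC6 cells (15k/well, seeded 24 or 48 h) washed, then exposed to compound in induction buffer (0.5% DMSO final) for 2, 3 or 4 h at 37°C.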

Structure (SMILES)	Emax
CNc1nc2cnc(-c3cccc(N(C)C)c3)cc2n1-c1cccc(F)c1 [Compound 683, 6-[3-(dimethylamino)phenyl]-1-(3-fluorophenyl)-N-methyl-imidazo[4,5-c]pyridin-2-amine]	30 to 50%
CNc1nc2cnc(-c3ccc(S(C)(=O)=O)cc3)cc2n1-c1cccc(F)c1 [Compound 684, 1-(3-fluorophenyl)-N-methyl-6-(4-methylsulfonylphenyl)imidazo[4,5-c]pyridin-2-amine]	30 to 50%
CNc1nc2cnc(Nc3ccc(OC)cc3)cc2n1-c1cccc(F)c1 [Compound 685, 1-(3-fluorophenyl)-N6-(4-methoxyphenyl)-N2-methyl-imidazo[4,5-c]pyridine-2,6-diamine]	50 to 100%
CNc1nc2cnc(Nc3ccc(C#N)cc3)cc2n1-c1cccc(F)c1 [Compound 686, 4-[[1-(3-fluorophenyl)-2-(methylamino)imidazo[4,5-c]pyridin-6-yl]amino]benzonitrile]	30 to 50%
CNc1nc2cnc(-c3cccs3)cc2n1-c1cccc(F)c1 [Compound 687, 1-(3-fluorophenyl)-N-methyl-6-(2-thienyl)imidazo[4,5-c]pyridin-2-amine]	50 to 100%
CNc1nc2cnc(Nc3cccc(NC(C)=O)c3)cc2n1-c1cccc(F)c1 [Compound 688, N-[3-[[1-(3-fluorophenyl)-2-(methylamino)imidazo[4,5-c]pyridin-6-yl]amino]phenyl]acetamide]	50 to 100%
CNc1nc2cnc(Nc3cccc(C(C)=O)c3)cc2n1-c1cccc(F)c1 [Compound 689, 1-[3-[[1-(3-fluorophenyl)-2-(methylamino)imidazo[4,5-c]pyridin-6-yl]amino]phenyl]ethanone]	50 to 100%
COc1cc(-n2cnc3cnc(Nc4cccc(C(F)(F)F)c4)cc32)cc(OC)c1OC [Compound 690, N-[3-(trifluoromethyl)phenyl]-1-(3,4,5-trimethoxyphenyl)imidazo[4,5-c]pyridin-6-amine]	> 100%
CN(C)c1cccc(Nc2cc3c(cn2)ncn3-c2ccccc2)c1 [Compound 691, N1,N1-dimethyl-N3-(1-phenylimidazo[4,5-c]pyridin-6-yl)benzene-1,3-diamine]	30 to 50%
CC(=O)Nc1ccc(Nc2cc3c(cn2)ncn3Cc2ccco2)cc1 [Compound 692, N-[4-[[1-(2-furylmethyl)imidazo[4,5-c]pyridin-6-yl]amino]phenyl]acetamide]	30 to 50%
COc1ccc(Nc2cc3c(cn2)ncn3Cc2ccco2)cc1 [Compound 693, 1-(2-furylmethyl)-N-(4-methoxyphenyl)imidazo[4,5-c]pyridin-6-amine]	50 to 100%
CC(=O)Nc1ccc(Nc2cc3c(cn2)ncn3Cc2ccccc2)cc1 [Compound 694, N-[4-[(1-benzylimidazo[4,5-c]pyridin-6-yl)amino]phenyl]acetamide]	50 to 100%
c1ccc(Cn2cnc3cnc(Nc4ccc5c(c4)OCO5)cc32)cc1 [Compound 695, N-(1,3-benzodioxol-5-yl)-1-benzyl-imidazo[4,5-c]pyridin-6-amine]	50 to 100%
CS(=O)(=O)c1ccc(Nc2cc3c(cn2)ncn3CC2CC2)cc1 [Compound 696, 1-(cyclopropylmethyl)-N-(4-methylsulfonylphenyl)imidazo[4,5-c]pyridin-6-amine]	30 to 50%
COc1cc(Nc2cc3c(cn2)nc(C)n3C)cc(OC)c1OC [Compound 697, 1,2-dimethyl-N-(3,4,5-trimethoxyphenyl)imidazo[4,5-c]pyridin-6-amine]	50 to 100%
CC(=O)c1cccc(Nc2cc3c(cn2)nc(C)n3C)c1 [Compound 698, 1-[3-[(1,2-dimethylimidazo[4,5-c]pyridin-6-yl)amino]phenyl]ethanone]	30 to 50%
COc1cc(Nc2cc3c(cn2)nc(Cc2ccccc2)n3C)cc(OC)c1OC [Compound 699, 2-benzyl-1-methyl-N-(3,4,5-trimethoxyphenyl)imidazo[4,5-c]pyridin-6-amine]	50 to 100%
CC(=O)Nc1ccc(Nc2cc3c(cn2)nc(Cc2ccccc2)n3C)cc1 [Compound 700, N-[4-[(2-benzyl-1-methyl-imidazo[4,5-c]pyridin-6-yl)amino]phenyl]acetamide]	50 to 100%
COc1cc(Nc2cc3c(cn2)nc(-c2ccccc2)n3C)cc(OC)c1OC [Compound 701, 1-methyl-2-phenyl-N-(3,4,5-trimethoxyphenyl)imidazo[4,5-c]pyridin-6-amine]	50 to 100%
CC(=O)Nc1ccc(Nc2cc3c(cn2)nc(-c2ccccc2)n3C)cc1 [Compound 702, N-[4-[(1-methyl-2-phenyl-imidazo[4,5-c]pyridin-6-yl)amino]phenyl]acetamide]	50 to 100%
COc1ccc(Nc2cc3c(cn2)nc(-c2ccccc2)n3C)c(OC)c1 [Compound 703, N-(2,4-dimethoxyphenyl)-1-methyl-2-phenyl-imidazo[4,5-c]pyridin-6-amine]	30 to 50%
COc1ccc(Nc2cc3c(cn2)nc(-c2ccccc2)n3C)cn1 [Compound 704, N-(6-methoxy-3-pyridyl)-1-methyl-2-phenyl-imidazo[4,5-c]pyridin-6-amine]	30 to 50%

Structure (SMILES)	Emax
COc1ccc(Nc2cc3c(cn2)nc(-c2ccccc2)n3C)cc1 [Compound 705, N-(4-methoxyphenyl)-1-methyl-2-phenyl-imidazo[4,5-c]pyridin-6-amine]	30 to 50%
Cn1c(-c2ccccc2)nc2cnc(Nc3ccc4c(c3)OCO4)cc21 [Compound 706, N-(1,3-benzodioxol-5-yl)-1-methyl-2-phenyl-imidazo[4,5-c]pyridin-6-amine]	50 to 100%
COc1cc(Nc2cc3c(cn2)nc(-c2ccco2)n3C)cc(OC)c1OC [Compound 707, 2-(2-furyl)-1-methyl-N-(3,4,5-trimethoxyphenyl)imidazo[4,5-c]pyridin-6-amine]	> 100%
CC(=O)Nc1ccc(Nc2cc3c(cn2)nc(-c2ccco2)n3C)cc1 [Compound 708, N-[4-[[2-(2-furyl)-1-methyl-imidazo[4,5-c]pyridin-6-yl]amino]phenyl]acetamide]	> 100%
Cc1cccc(Nc2cc3c(cn2)nc(-c2ccco2)n3C)c1 [Compound 709, 2-(2-furyl)-1-methyl-N-(m-tolyl)imidazo[4,5-c]pyridin-6-amine]	50 to 100%
Cn1c(-c2ccco2)nc2cnc(Nc3ccccc3Cl)cc21 [Compound 710, N-(2-chlorophenyl)-2-(2-furyl)-1-methyl-imidazo[4,5-c]pyridin-6-amine]	30 to 50%
CN(C)C(=O)c1ccc(Nc2cc3c(cn2)nc(-c2ccco2)n3C)cc1 [Compound 711, 4-[[2-(2-furyl)-1-methyl-imidazo[4,5-c]pyridin-6-yl]amino]-N,N-dimethyl-benzamide]	50 to 100%
CC(=O)Nc1cccc(Nc2cc3c(cn2)nc(-c2ccco2)n3C)c1 [Compound 712, N-[3-[[2-(2-furyl)-1-methyl-imidazo[4,5-c]pyridin-6-yl]amino]phenyl]acetamide]	50 to 100%
CC(=O)Nc1ccc(Nc2cc3c(cn2)nc(-c2cccc(F)c2)n3C)cc1 [Compound 713, N-[4-[[2-(3-fluorophenyl)-1-methyl-imidazo[4,5-c]pyridin-6-yl]amino]phenyl]acetamide]	50 to 100%
Cn1c(-c2cccc(F)c2)nc2cnc(Nc3ccc4c(c3)OCO4)cc21 [Compound 714, N-(1,3-benzodioxol-5-yl)-2-(3-fluorophenyl)-1-methyl-imidazo[4,5-c]pyridin-6-amine]	50 to 100%
CN(C)C(=O)c1ccc(Nc2cc3c(cn2)nc(-c2cccc(F)c2)n3C)cc1 [Compound 715, 4-[[2-(3-fluorophenyl)-1-methyl-imidazo[4,5-c]pyridin-6-yl]amino]-N,N-dimethyl-benzamide]	30 to 50%
COc1ccc(-c2nc3cnc(Nc4cc(OC)c(OC)c(OC)c4)cc3n2C)cc1OC [Compound 716, 2-(3,4-dimethoxyphenyl)-1-methyl-N-(3,4,5-trimethoxyphenyl)imidazo[4,5-c]pyridin-6-amine]	50 to 100%
COc1ccc(-c2nc3cnc(Nc4ccc(NC(C)=O)cc4)cc3n2C)cc1OC [Compound 717, N-[4-[[2-(3,4-dimethoxyphenyl)-1-methyl-imidazo[4,5-c]pyridin-6-yl]amino]phenyl]acetamide]	50 to 100%
COc1cccc(Nc2cc3c(cn2)nc(-c2ccc(OC)c(OC)c2)n3C)c1 [Compound 718, 2-(3,4-dimethoxyphenyl)-N-(3-methoxyphenyl)-1-methyl-imidazo[4,5-c]pyridin-6-amine]	50 to 100%
COc1ccc(-c2nc3cnc(Nc4ccc(C(N)=O)cc4)cc3n2C)cc1OC [Compound 719, 4-[[2-(3,4-dimethoxyphenyl)-1-methyl-imidazo[4,5-c]pyridin-6-yl]amino]benzamide]	30 to 50%
COc1ccc(Nc2cc3c(cn2)nc(-c2ccc(OC)c(OC)c2)n3C)c(C)c1 [Compound 720, 2-(3,4-dimethoxyphenyl)-N-(4-methoxy-2-methyl-phenyl)-1-methyl-imidazo[4,5-c]pyridin-6-amine]	30 to 50%
COc1ccc(Nc2cc3c(cn2)nc(-c2ccc(OC)c(OC)c2)n3C)cc1 [Compound 721, 2-(3,4-dimethoxyphenyl)-N-(4-methoxyphenyl)-1-methyl-imidazo[4,5-c]pyridin-6-amine]	50 to 100%
COc1ccc(-c2nc3cnc(Nc4ccc5c(c4)OCO5)cc3n2C)cc1OC [Compound 722, N-(1,3-benzodioxol-5-yl)-2-(3,4-dimethoxyphenyl)-1-methyl-imidazo[4,5-c]pyridin-6-amine]	30 to 50%
COc1ccc(Nc2cc3c(cn2)nc(-c2ccc(OC)c(OC)c2)n3C)cc1O [Compound 723, 5-[[2-(3,4-dimethoxyphenyl)-1-methyl-imidazo[4,5-c]pyridin-6-yl]amino]-2-methoxy-phenol]	> 100%
COc1cc(Nc2cc3c(cn2)nc(-c2ccncc2)n3C)cc(OC)c1OC [Compound 724, 1-methyl-2-(4-pyridyl)-N-(3,4,5-trimethoxyphenyl)imidazo[4,5-c]pyridin-6-amine]	30 to 50%
COc1cc(Nc2cc3c(cn2)ncn3C)cc(OC)c1OC [Compound 725, 1-methyl-N-(3,4,5-trimethoxyphenyl)imidazo[4,5-c]pyridin-6-amine]	30 to 50%
